Our source for the IC50 values is publication PMC6928947, “Benzo[b]tellurophenes as a Potential Histone H3 Lysine 9 Demethylase (KDM4) Inhibitor” (International Journal of Molecular Sciences, 2019).

The target in this assay is T1, KDM4A (Homo sapiens, UniProt O75164).
T1 sequence (O75164 2-1064): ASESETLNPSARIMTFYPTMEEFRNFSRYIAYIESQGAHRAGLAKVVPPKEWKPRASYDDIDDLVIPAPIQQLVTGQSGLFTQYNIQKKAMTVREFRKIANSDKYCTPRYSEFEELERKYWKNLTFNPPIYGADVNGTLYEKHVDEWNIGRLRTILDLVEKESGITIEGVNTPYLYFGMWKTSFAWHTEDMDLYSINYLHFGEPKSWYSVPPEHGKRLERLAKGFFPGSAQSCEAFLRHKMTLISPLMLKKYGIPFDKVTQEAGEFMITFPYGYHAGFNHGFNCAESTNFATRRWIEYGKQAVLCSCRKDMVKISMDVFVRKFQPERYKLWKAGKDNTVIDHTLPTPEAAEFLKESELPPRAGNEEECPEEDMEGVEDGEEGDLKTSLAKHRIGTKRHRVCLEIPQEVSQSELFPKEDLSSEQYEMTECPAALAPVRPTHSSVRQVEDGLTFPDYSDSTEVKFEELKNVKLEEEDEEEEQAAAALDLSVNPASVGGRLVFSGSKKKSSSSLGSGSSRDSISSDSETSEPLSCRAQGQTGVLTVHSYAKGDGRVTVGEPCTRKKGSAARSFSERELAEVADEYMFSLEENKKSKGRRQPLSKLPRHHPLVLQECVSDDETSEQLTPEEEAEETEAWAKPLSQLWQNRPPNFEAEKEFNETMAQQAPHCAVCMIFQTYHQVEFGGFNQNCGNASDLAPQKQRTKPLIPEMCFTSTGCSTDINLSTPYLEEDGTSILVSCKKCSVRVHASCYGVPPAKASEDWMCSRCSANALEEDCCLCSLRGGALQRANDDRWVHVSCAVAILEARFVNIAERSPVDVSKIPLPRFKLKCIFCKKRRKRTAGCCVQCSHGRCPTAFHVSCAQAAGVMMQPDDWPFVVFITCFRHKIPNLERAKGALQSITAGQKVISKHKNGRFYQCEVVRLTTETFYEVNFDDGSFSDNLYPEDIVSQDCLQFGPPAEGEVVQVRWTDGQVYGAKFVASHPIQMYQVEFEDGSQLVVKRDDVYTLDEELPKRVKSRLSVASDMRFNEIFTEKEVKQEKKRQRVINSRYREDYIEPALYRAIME
In words: FDH-coupled demethylase assay, recombinant KDM4A with H3K9me3 peptide (Cayman kit […]). The format is biochemical.

SMILES strings stand for the structures.

Take `CC(C)(C)OC(=O)NCc1cc2ccccc2[te]1` [1c, tert-Butyl benzo[b]tellurophen-2-ylmethylcarbamate]: the IC50 worked out at 30.2 ± 4.6 µM.
